We go through 5 compounds from US20240198337A1, “Bone Marrow on a Chip” (NEW YORK UNIVERSITY, priority 2021, published 2024).

Assay [1] deals with murine B-ALL cells. Put plainly: Combinational drug regimens in the murine leukemic niche model. The assay is classed as cell-based. Particulars: 5 μg/mL AMD, 1 μg/mL BIO or 10 μM BAY combined with NIL, PRE or VCR for 48 hr. The procedure:
The 3D biomimetic leukemic niche model was exploited to test the combinational drug regimens in vitro. Generally, the murine leukemic niche models were cultured for 24 hr after fabrication, then respectively administrated with various pharmaceuticals [i.e. 5 μg/mL AMD3100 (AMD), 1 μg/mL BIO5192 (BIO), and 10 μM BAY 11-7082 (BAY), correspondingly], and concomitantly treated with 1 μM NIL, 1 μM PRE or 0.1 μM VCR for 48 hr. The viability of B-ALL cells was measured by the DAPI staining as described above.
The following investigation concerned whether co-targeting niche-derived pro-survival signals (CXCR4/CXCL12, VCAM-1/VLA-4, and NF-κB signaling) using either CXCR4 inhibitor (AMD), VLA-4 inhibitor (BIO), or NF-κB inhibitor (BAY) could improve the responsiveness of B-ALL-targeting chemotherapeutics. B-ALL blasts and niche cells (containing ECs and MSCs) were co-cultured for 24 hr in the Leukemia-on-a-Chip, and then administered individual niche-targeting compounds in combination with either NIL, PRE or VCR for 48 hr, after which B-ALL cell viability was measured. […] The lack of response to VLA-4 treatment may be due to VLA-4 blockade broke the leukemia dormancy to compensate the B-ALL death.

For assay [2], the system named is NF-κB. Put plainly: NF-κB activation (nuclear translocation) in B-ALL cells in Leukemia-on-a-Chip. It counts as cell-based, murine. The note with it: B-ALL cells with niche cells. The source says: FIG. 8A through FIG. 8J depicts the results of niche cells promoting leukemia progression via cytokine and adhesive signaling. (FIG. 8A) The regional CXCR4 distribution on murine B-ALL cells cultured with or without niche cells. (FIG. 8B) The quantified result corresponding to (FIG. 8A). (FIG. 8C) Membrane-based ELISA analysis of CXCL12 expression level of niche cells (ECs and MSCs). (FIG. 8D) The quantified result corresponding to (FIG. 8C). (FIG. 8E) The representative image showing B-ALL cells co-localized with niche cells via VCAM-1/VLA-4 signaling. (FIG. 8F) The representative images showing nuclear translocation of NF-κB in B-ALL cells. (FIG. 8G) NF-κB activation in B-ALL cells with or without niche cells and under treatments with CXCR4 inhibitor, AMD3100 (AMD) and VLA-4 inhibitor, BIO5192 (BIO). The ratios were manually quantified from 3 experimental replicates (N>200). One-way ANOVA followed by Tukey's post hoc test. […] (FIG. 8I) The quantification of NF-κB activation in human NALM-6, 697, RS(4; 11), and UOCB1 blasts within their leukemia niches. The ratios were manually measured from 3 experimental replicates (N>150). (FIG. 8J) The quantification of NF-κB activation in patient-derived B-ALL blasts within engineered leukemia niches. The ratios for various B-ALL blasts were manually measured from 3 technical replicates (N>20). […]

The test system of assay [3] is murine Ph+ B-ALL cells. Description: Drug resistance testing: B-ALL cell viability in 3D hydrogel devices (Calcein-AM/DAPI). The assay is classed as cell-based. Particulars: NF-κB blockade.
The test system of assay [4] is murine B-ALL cells. Description: B-ALL cell adhesion onto niche cells with or without adhesion blockade. The note with it: VLA-4 blockade; 24 hours on niche cell monolayer. It counts as cell-based. The protocol: (FIG. 11A) Experimental setup for testing murine B-ALL cell adhesion onto niche cells [i.e. ECs (C166), MSCs (OP9), and osteoblasts (MC3T3)] with or without adhesion blockade. B-ALL cells were plated into the dishes with niche cell monolayer and cultured for 24 hours, followed by five times washing with warm PBS. The images were then taken with 20× objective. (FIG. 11B) Adhered B-ALL cells were manually counted and plotted as cell number per filed. Each condition has 3 replicates with >10 images being counted. One-way ANOVA followed by Tukey's post hoc test (n.s., not significant, *p<0.05, **p<0.01).

Assay [5] has as its system murine Ph+ B-ALL cells. Description: Drug resistance testing: B-ALL cell viability in 3D hydrogel devices (Calcein-AM/DAPI). The assay is classed as cell-based. Particulars: NIL 1 μM, PRE 1 μM, VCR 0.1 μM; for viability of B-ALL cells in perivascular versus endosteal niche: 2-day treatment; for B-ALL eradication (viability): absence of niche cells; for B-ALL eradication (viability) / B-ALL drug-induced cell death (chemo-resistance): 48 hr; for B-ALL drug-induced cell death (chemo-resistance): presence of niche cells. The procedure:
The outcome of drugs was defined by the viability of B-ALL cells as a cytotoxic end point after drug treatment. B-ALL cells were cultured alone or co-cultured with niche cells in 3D hydrogel devices for 24 hr, and then incubated with 1 μM nilotinib (NIL, Cayman Chemical), 1 μM prednisone (PRE, Sigma), and 0.1 μM vincristine (VCR, Sigma) for 48 hr. The cell viability was quantitatively determined by using Calcein-AM (Thermo Fischer Scientific) and DAPI, which respectively stained the live and dead cells. Briefly, cells were rinsed thrice with PBS and incubated with Calcein-AM and DAPI ([…] and 5 μg/mL in PBS or medium) solution for 30 min at 37° C., followed by a final rinse with PBS. Afterward, cells were observed under a fluorescence microscope, and cellular viability was quantitatively measured by counting the number of objects in the green (live cells) and red (dead cells) channels. Untreated groups of B-ALL cells were used as controls to benchmark the drug resistance of different groups.

Consider `c1cc(CN2CCCNCCNCCCNCC2)ccc1CN1CCCNCCNCCCNCC1` [AMD3100], for which the “responsiveness of B-ALL blasts to tumor-targeting agents (B-ALL killing) on niche co-targeting” value (shortened to “responsiveness of B-ALL blasts”) in assay [1] was “significantly reversed the chemo-protective activity of niche cells”. Moreover, the “nuclear translocation of NF-κB in B-ALL cells” value in assay [2] is recorded as “suppressed the nuclear translocation of NF-κB in B-ALL cells”.

For `Cc1ccc(S(=O)(=O)/C=C/C#N)cc1` [BAY 11-7082], in assay [1], the “responsiveness of B-ALL blasts” value is “significantly reversed the chemo-protective activity of niche cells”. For the same compound, the “B-ALL survival (cell viability)” value in assay [3] (absence of niche cells) is “significantly decreased B-ALL survival”; in assay [3] (co-culture with niche cells), “partially rescued B-ALL cell survival from BAY treatment”.

As to `Cc1ccccc1NC(=O)Nc1ccc(CC(=O)N(C)[C@@H](CC(C)C)C(=O)NCC[C@H](NC(=O)[C@@H]2CCCN2S(=O)(=O)c2cc(Cl)cc(Cl)c2)C(=O)O)cc1` [BIO5192], the “responsiveness of B-ALL blasts” value in assay [1] was “no significant effect on the responsiveness of B-ALL blasts to tumor-targeting agents”. For the same compound, the “nuclear translocation of NF-κB in B-ALL cells” value in assay [2] is “suppressed the nuclear translocation of NF-κB in B-ALL cells”. Also, the “intercellular adhesion of B-ALL cells onto niche cells” value in assay [4] was “significantly decrease the intercellular adhesion of B-ALL cells onto niche cells”.

For the compound `Cc1cn(-c2cc(NC(=O)c3ccc(C)c(Nc4nccc(-c5cccnc5)n4)c3)cc(C(F)(F)F)c2)cn1` [nilotinib], in assay [5], the “viability of B-ALL cells in perivascular versus endosteal niche” value was “a stronger dormancy and chemo-resistance of B-ALL cells in the endosteal niche”; the “B-ALL eradication (viability)” value is “efficient B-ALL eradication”; the “B-ALL drug-induced cell death (chemo-resistance)” value (“B-ALL drug-induced cell death” below) is on record as “chemo-resistance phenomenon was confirmed”. In assay [5] (listed as NIL), the “B-ALL drug-induced cell death” value was “partial rescue of drug-induced cell death”.

`C[C@]12C=CC(=O)C=C1CC[C@@H]1[C@@H]2C(=O)C[C@@]2(C)[C@H]1CC[C@]2(O)C(=O)CO` [prednisone]: in assay [5], the “viability of B-ALL cells in perivascular versus endosteal niche” value was “a stronger dormancy and chemo-resistance of B-ALL cells in the endosteal niche”; the “B-ALL eradication (viability)” value was “efficient B-ALL eradication”; the “B-ALL drug-induced cell death” value is given as “chemo-resistance phenomenon was confirmed”. The “B-ALL drug-induced cell death” value in assay [5] (listed as PRE) was “partial rescue of drug-induced cell death”.
